Measurements taken from publication PMC9598656, “In Vitro Activity of Robenidine Analogues NCL259 and NCL265 against Gram-Negative Pathogens” (Antibiotics, 2022).
In brackets after ≈: the same amount, converted by molar mass.

Columns and labels:
P. aeruginosa PAO1 = assay: MIC, broth micro-dilution; assay type: cell-based, Pseudomonas aeruginosa; conditions: Pseudomonas aeruginosa, read-out: MIC, Single Drug
Procedure: (§1) A variety of Gram-negative reference strains (E. coli ATCC 25922, E. coli ATCC 10763, P. aeruginosa PAO1, P. aeruginosa ATCC 27853, A. baumannii ATCC 12457, A. baumannii ATCC 19606, K. pneumoniae ATCC 4352 and K. pneumoniae ATCC 33495) were used for initial screening and combination testing with PMB. The organisms were speciated using biochemical testing and MALDI-TOF mass spectrometry (Bruker, Preston, VIC, Australia). Activity testing of NCL259 and NCL265 was also carried out on 51 extraintestinal clinical E. coli isolates from companion animals, and 83 porcine and bovine enterotoxigenic E. coli (ETEC) isolates from the Australian Centre for Antimicrobial Resistance Ecology collection. E. coli wild-type (BW 25113) and its mutant BW 25113∆AcrB, in which the inner membrane component AcrB of the tripartite multidrug efflux system AcrA/AcrB/TolC has been deleted, were obtained from the bacterial collection held at Health and Biomedical Innovation, Clinical and Health Sciences, The University of South Australia. All isolates were cultured on sheep blood agar (SBA) plates at 37 °C for 18 h before being subcultured into Luria Bertaini (LB) (Oxoid, Scoresby, VIC, Australia) broth and grown to A600nm = 0.5 (equivalent to approx. 1.5 × 10^8 colony-forming units (CFU)/mL).
(§2) MICs for NCL259 and NCL265 (serial two-fold dilutions commencing at 256 µg/mL) were determined (in duplicate) in round bottom 96–well microtitre trays (Sarstedt 82.1582.001), using the broth micro-dilution method recommended by the Clinical and Laboratory Standards Institute (CLSI). We have shown previously that robenidine can chelate calcium ions from cation-adjusted Mueller-Hinton broth, which causes the loss of activity of robenidine. Therefore, LB broth was used in this study. Additionally, considering the low solubility of robenidine and its analogues in aqueous solutions, two-fold serial dilutions of stock solutions of these compounds were prepared in 100% DMSO [21]. The MIC for ampicillin against each isolate was determined for each test to serve as an internal quality control. The MICs of isolates were determined by visual reading and using an EnSpire Multimode Plate Reader 2300 at A600nm.

P. aeruginosa ATCC 27853 = assay: MIC, broth micro-dilution; assay type: cell-based, Pseudomonas aeruginosa; conditions: Pseudomonas aeruginosa, ATCC27853, read-out: MIC, Single Drug
Procedure: as §1, §2

[1] = system: Hep G2 (human hepatocellular carcinoma cell line); assay: In vitro cytotoxicity, WST-1; assay type: cell-based; conditions: HepG2, 24 h
Text: (§3) Potential toxicity of NCL259 and NCL265 to mammalian cells relative to the parent compound (NCL812) was examined using Caco-2 (human colorectal adenocarcinoma cell line), HEL 299 (non-cancerous human lung fibroblast cell line), Hep G2 (human hepatocellular carcinoma cell line), MCF-7 (human mammary gland adenocarcinoma cell line), MDBK (normal Madin–Darby bovine kidney cell line) and Vero (normal adult African green monkey cell line), essentially as described previously. Toxicity to the cell lines was performed using serial two-fold dilutions of each compound from 128 to 1 μg/mL in duplicates in flat bottom 96 well tissue culture trays (Sarstedt 83.3924) containing approximately 2 × 10^4 cells per well in antibiotic-free Dulbecco’s Modified Eagle’s Medium (DMEM; Gibco Cat No: 12430; Thermo Fisher Scientific, Scoresby, VIC, Australia) consisting of 10% (v/v) fetal bovine serum at 37 °C, 5% CO2 for 24 h. Duplicate wells containing ampicillin at 128 to 1 μg/mL were used as controls. Thereafter, 10% (v/v) of the WST-1 cell proliferation assay reagent (Cat No: 05015944001; Roche Life Science, North Ryde, NSW, Australia) was added to each well, the trays were further incubated at 37 °C, 5% CO2 for 1 h and absorbance read at A450nm on a Multiskan Ascent 354 Spectrophotometer (Labsystems, Lilydale, VIC, Australia). The inhibitory concentration of each compound was determined as the half maximal inhibitory concentration (IC50) at A450nm.

[2] = system: Vero (normal adult African green monkey cell line); assay: In vitro cytotoxicity, WST-1; assay type: cell-based; conditions: Chlorocebus sabaeus, 24 h
Text: as §3

[3] = system: MDBK (normal Madin–Darby bovine kidney cell line); assay: In vitro cytotoxicity, WST-1; assay type: cell-based; conditions: Bos taurus, 24 h
Text: as §3

[4] = system: MCF-7 (human mammary gland adenocarcinoma cell line); assay: In vitro cytotoxicity, WST-1; assay type: cell-based; conditions: MCF7, 24 h
Text: as §3

[5] = system: HEL 299 (non-cancerous human lung fibroblast cell line); assay: In vitro cytotoxicity, WST-1; assay type: cell-based; conditions: HEL 299, 24 h
Text: as §3

[6] = system: Caco-2 (human colorectal adenocarcinoma cell line); assay: In vitro cytotoxicity, WST-1; assay type: cell-based; conditions: Caco-2, 24 h
[7] = first of two independent experiments
[8] = second of two independent experiments

Row | SMILES | MIC (P. aeruginosa PAO1) | MIC (P. aeruginosa ATCC 27853) | IC50 [1, 7] | IC50 [1, 8] | IC50 [2, 7] | IC50 [2, 8] | IC50 [3, 7] | IC50 [3, 8] | IC50 [4, 7] | IC50 [4, 8] | IC50 [5, 7] | IC50 [5, 8] | IC50 [6, 7] | IC50 [6, 8]
1 | [H]/N=C(\N)NN=C(CC1CCCCC1)c1ccc(Cl)cc1 [NCL259, (E)-2-(1-(4-chlorophenyl)-2-cyclohexylethylidene)hydrazine-1-carboximidamide] | 64 µg/mL | 64 µg/mL | < 1 µg/mL | < 1 µg/mL | 6 µg/mL (≈ 20.5 µM) | 3 µg/mL (≈ 10.2 µM) | 2 µg/mL (≈ 6.83 µM) | 2 µg/mL (≈ 6.83 µM) | 3 µg/mL (≈ 10.2 µM) | 6 µg/mL (≈ 20.5 µM) | < 2 µg/mL | < 2 µg/mL | < 1 µg/mL | 3 µg/mL (≈ 10.2 µM)
2 | [H]/N=C(\N)NN=C(CCCCCC)c1ccc(Cl)cc1 [NCL265, (E)-2-(1-(4-chlorophenyl)heptylidene)hydrazine-1-carboximidamide] | 64 µg/mL | 32 µg/mL | < 1 µg/mL | < 1 µg/mL | 6 µg/mL (≈ 21.4 µM) | 3 µg/mL (≈ 10.7 µM) | 3 µg/mL (≈ 10.7 µM) | 2 µg/mL (≈ 7.12 µM) | < 1 µg/mL | 6 µg/mL (≈ 21.4 µM) | < 2 µg/mL | < 2 µg/mL | < 1 µg/mL | < 2 µg/mL
